Laboratory results published in US20240343699A1, “DERIVATIVES OF SUBSTITUTED MORPHOLINES AND USES THEREOF” (Supernus Pharmaceuticals, Inc., priority 2023, published 2024).

Tests used:
[1] = Stability in fluid matrices SGF, SIF and PBS; assay type: physicochemical; details: 37° C.
Protocol: Simulated Gastric Fluid (SGF) was prepared with 34.2 mM NaCl, 80 μM sodium taurocholate, 20 μM of L-alpha phosphatidylcholine/lecithin, and 0.1 mg/mL of Pepsin. 1 M HCl was added dropwise to adjust the pH to 1.96. Simulated Intestinal Fluid (SIF) was prepared with sodium phosphate monobasic, 105.9 mM NaCl, […] sodium taurocholate, and […] of L-alpha phosphatidylcholine/lecithin. 1 N NaOH was added dropwise to adjust the pH to 5.98. Phosphate buffered saline (PBS) at pH 6.0 was made by titrating PBS at pH 7.4 with 1 M HCl.
Stability of Test Articles at Different pH Values. 10 mM stock solutions of COMPOUND A were prepared in DMSO. From this stock solution, a single concentration in a 10 μL aliquot was added to three fluid matrices: SGF at pH 2.0 (gastric), SIF at pH 6.0 (upper intestine), and PBS at 7.4 (systemic). The final volume was 1 mL (0.1 mM). The preparations were then incubated at 37° C. and samples were collected at 0, 15, 30, 60, and 120 min for analysis of parent material by LC/MS/MS. The collected sample was quenched in acetonitrile/0.1% formic acid mixture. Red Blood Cell (RBC): Human and rat blood were centrifuged to separate out red blood cells at […] for 15 min. The upper plasma level was aspirated with a micropipette and placed in a bleach solution for disposal. The RBC pellet was resuspended in sterile isotonic saline. The pellet was gently resuspended by rocking the tube. The sample was then centrifuged again to collect the RBC pellet and then resuspended and washed one more time following the same procedure. A total of three was done. Following the last wash and centrifugation, the RBCs were resuspended with PBS; and mixed by inversion. Aliquots of the resuspended and washed RBCs were then placed into 4 reaction tubes. These tubes were centrifuged to collect the RBCs. The fluid level was marked on each tube, then the supernatant was aspirated off and the cells resuspended with room temperature PBS pH 7.4 to the original mark. An aliquot of the RBC suspension was added to four sterile tubes containing PBS pH 7.4 at room temperature.

[2] = Stability in rat gut microbiota (fecal matter); assay type: in vitro ADME; details: pH 6 and pH 7.4, 0.5 mM
Protocol: Stability in Rat and Human Gut Microbiota. Rat fecal material was obtained and weighed. One capsule of the raw probiotics was crushed and weighed prior to use. The weighed samples were then solubilized in PBS at pH 6.0 and 7.4 to extract microorganisms. The samples were centrifuged at 18,000×g for 10 min to remove particulates and the supernatant was used to evaluate test article stability. An aliquot (50 μL) of the COMPOUND A stock solution was added to the fecal extract (final concentration 0.5 mM) and allowed to incubate at 37° C. Aliquots were collected at 0, 15, 30, 60, and 120 min and analyzed by LC/MS/MS to determine stability of the parent molecule. The collected sample was quenched in acetonitrile/0.1% formic acid mixture.

amidase = assay: Stability in the presence of amidase and amidase inhibitors in PBS; assay type: biochemical; details: amidase 50 units in PBS
Protocol: Stability of COMPOUND A in the Presence of Amidase in Pure System. […] Test article (COMPOUND A) stock solution was prepared in 100% DMSO at a concentration of 10 mM. An aliquot (50 μL) of test article stock solution was added to 950 μL of PBS with and without amidase (50 units) in 1.5 mL tubes, and the mixture was vortexed and incubated at 37° C. with 5% CO2 for 120 min. Samples (50 μL) were taken at 0, 15, 30, 60, and 120 min after being vortexed. Samples were quenched in 150 μL acetonitrile/0.1% formic acid solution and briefly vortexed then immediately frozen at −80° C. Stability was determined by measuring loss of parent compound using LC/MS/MS methods. Each exposure condition and time point were done in triplicate.
Stability of COMPOUND A in the Presence of Amidase and Amidase Inhibitors in a Phosphate-buffered Saline (PBS). To confirm inhibition of the amidase, individual inhibitors were added to PBS with amidase (50 units). A solution without amidase and without inhibitors was also tested as a control. The individual inhibitors tested were Chloroacetone at 200 μM and MAFP at 40 nM. Amidase solution was prepared as described above and inhibitors were added to the solutions to the intended concentrations. […] Stability was determined by measuring loss of parent compound using LC/MS/MS methods. […]

anxiety-like behavior = assay: Elevated plus maze (EPM); assay type: in vivo, male Wistar rats; details: for Closed arm entries / Closed arm returns / Head dips in open arms / Stretch-attend postures / Time in closed arms / Time in open arms / Total arm entries: mean; for % Time in open arms / Open Arm Entries / Total distance travelled: mean ± S.E.M.
[3] = 30 mg/kg PO 20 min prior to EPM
[4] = 60 mg/kg PO 20 min prior to EPM
[5] = 120 mg/kg PO 40 min prior to EPM

Structure (SMILES): CCOc1ccccc1OC[C@@H]1CN(C(=O)OC(C)OC(=O)[C@@H](N)C(C)C)CCO1 (stereo partly drawn) [COMPOUND A]
- stability in PBS (amount of parent compound) ([1]; PBS pH 7.4, 0.1 mM): time-dependent decrease in the amount of parent compound
- stability in SGF (LC/MS/MS peak area of parent) ([1]; SGF pH 2.0, 0.1 mM, 0-120 min): time-dependent decrease in the LC/MS/MS peak area until 20 min
- amount of parent compound in SIF ([1]; SIF pH 6.0, 0.1 mM, all time points): 100%
- stability in rat fecal matter [2]: time-dependent decrease in the amount of parent compound
- role of amidase in degradation (amidase): amidase activity played an important role
- Closed arm entries (anxiety-like behavior; [3]): 10.00
- Closed arm returns (anxiety-like behavior; [3]): 2.00
- Head dips in open arms (anxiety-like behavior; [3]): 2.25
- Stretch-attend postures (anxiety-like behavior; [3]): 18.00
- Time in closed arms (anxiety-like behavior; [3]): 282.58 s
- Time in open arms (anxiety-like behavior; [3]): 8.74 s
- Total arm entries (anxiety-like behavior; [3]): 11.00
- % Time in open arms (anxiety-like behavior; [3]): 2.91 ± 1.28%
- Open Arm Entries (anxiety-like behavior; [3]): 1.00 ± 0.33
- Total distance travelled (anxiety-like behavior; [3]): 1591.15 ± 73.52 cm
- Closed arm entries (anxiety-like behavior; [4]): 7.00
- Closed arm returns (anxiety-like behavior; [4]): 2.13
- Head dips in open arms (anxiety-like behavior; [4]): 3.63
- Stretch-attend postures (anxiety-like behavior; [4]): 18.63
- Time in closed arms (anxiety-like behavior; [4]): 281.10 s
- Time in open arms (anxiety-like behavior; [4]): 7.25 s
- Total arm entries (anxiety-like behavior; [4]): 7.63
- % Time in open arms (anxiety-like behavior; [4]): 2.42 ± 0.92%
- Open Arm Entries (anxiety-like behavior; [4]): 0.63 ± 0.18
- Total distance travelled (anxiety-like behavior; [4]): 1318.06 ± 39.58 cm
- Closed arm entries (anxiety-like behavior; [5]): 9.63
- Closed arm returns (anxiety-like behavior; [5]): 2.00
- Head dips in open arms (anxiety-like behavior; [5]): 2.25
- Stretch-attend postures (anxiety-like behavior; [5]): 20.38
- Time in closed arms (anxiety-like behavior; [5]): 283.06 s
- Time in open arms (anxiety-like behavior; [5]): 0.85 s
- Total arm entries (anxiety-like behavior; [5]): 9.88
- % Time in open arms (anxiety-like behavior; [5]): 0.28 ± 0.19%
- Open Arm Entries (anxiety-like behavior; [5]): 0.25 ± 0.16
- Total distance travelled (anxiety-like behavior; [5]): 1476.54 ± 60.73 cm
- total distance traveled vs vehicle (anxiety-like behavior; COMPOUND A 60 and 120 mg/kg p.o.): travelled a significantly shorter distance
